Measured values as given in PubChem BioAssay AID1645848.
Values after ≈ are worked out from the molar mass of the structure shown.

conditions: buffer; pH 7.4; 6.0 h; 150.0 µM

| Compound | solubility kinetic |
| --- | --- |
| Cc1cnc(-c2ccccc2C(F)F)nc1NCC1CN(c2cnccn2)C1 | > 56 µg/mL |
| O=[N+]([O-])c1ccc(-c2nc(Nc3ccc(F)c(F)c3)c3ccccc3n2)cc1 | < 1 µg/mL |
| O=c1ncn2nc(Sc3ccc(F)cc3F)ccc2c1-c1c(Cl)cccc1Cl | > 100 µg/mL |
| CCCOC(c1cc2nccc(C(=O)O)c2[nH]1)c1ccccc1Cl (stereo unspecified) | > 51 µg/mL |
| CC(=O)NCCNC[C@@H]1C=C(C)[C@H](Cc2nnc(-c3ccccc3)o2)C[C@H]1C(C)C | > 61 µg/mL |
| COc1ccc2[nH]c(C[C@@H]3C[C@@H](C(C)C)[C@H](CNCc4ccccc4O)C=C3C)nc2n1 | 42.1 µg/mL (≈ 96.9 µM) |
| Cn1c(CN2CCCC2)nc2cc(NC(=O)COc3ccc(Cl)cc3)ccc21 | > 59 µg/mL |
| COc1ccc(NC(=O)C23CC4CC(CC(C4)C2)C3)cc1[S+](=O)([O-])Nc1ccc(Br)cc1 | < 1 µg/mL |
| O=C1CCCC2=C1C(c1ncccc1Br)N=C(Nc1nc3ccccc3o1)N2 (stereo unspecified) | 7.87 µg/mL (≈ 17.9 µM) |
| COc1ccc(-c2ccc(Nc3nc(-c4ccncc4)nc4ccccc34)cc2F)cc1F | < 1 µg/mL |
| O=c1c(-c2ccc(O)cc2)coc2cc(O)cc(O)c12 | 27.3 µg/mL (≈ 101 µM) |
| Cc1ccc(-c2nc(C)c(C(=O)Nc3ccc4c(c3)C(=O)N3CCC[C@H]3C(=O)N4)s2)cc1 | 4.88 µg/mL (≈ 10.9 µM) |
| C#CCNC(=O)c1nc(-c2ccc(Cl)nc2)c2ccccn12 | 2.64 µg/mL (≈ 8.5 µM) |
| Cc1ccnc(NC(=S)N2CC[C@@H](Nc3cccc(C(F)(F)F)c3)C2)c1 | 7.92 µg/mL (≈ 20.8 µM) |
| Cc1ccc(CC(=O)Nc2nc(-c3ccc4c(c3)CCN4C(=O)c3ccccc3C)c(C)s2)cc1C | < 1 µg/mL |
| Cc1ccc(Cl)cc1NS(=O)(=O)c1cc2c(cc1F)NC(=O)CC2 | 1.76 µg/mL (≈ 4.79 µM) |
| COc1cc2c(cc1Oc1cccc(N(C)C)c1)NC(=O)C21CCN(c2cnccn2)CC1 | 2.21 µg/mL (≈ 4.97 µM) |
| Cc1ccc(S(=O)(=O)Nc2cc(Br)ccc2C(=O)Nc2nc(-c3ccccc3)cs2)cc1 | < 1 µg/mL |
| Cc1ccccc1C(=O)N1CCc2cc(N3CCC(NC(=O)Cc4ccccc4)C3)ccc21 (stereo unspecified) | 5.59 µg/mL (≈ 12.7 µM) |
| Cc1ccc(S(=O)(=O)Nc2ccccc2N2CCCCC2)cc1 | < 1 µg/mL |
| Cc1ccccc1C(=O)N1CCc2cc(-c3nc(NC(=O)Cc4ccccc4)sc3C)ccc21 | < 1 µg/mL |
| CSc1nn(Cc2cccc(C)c2)c(N)c1S(=O)(=O)c1ccccc1 | < 1 µg/mL |
| Cc1ccc(C(=O)Nc2ccc(CN3CCN(C)CC3)c(C(F)(F)F)c2)cc1C#Cc1cnc2cccnn12 | < 1 µg/mL |
| O=C(NCCc1nc2ccccc2n1CCO)C1CCCCC1 | > 47 µg/mL |

| Compound | solubility kinetic |
| --- | --- |
| CN1CCN(Cc2ccc(NC(=O)Cc3ccc(Oc4cc(NC(=O)C5CC5)ncn4)cc3)cc2C(F)(F)F)CC1 | 57.3 µg/mL (≈ 101 µM) |
| COc1ccccc1OCCNCC(O)COc1cccc2[nH]c3ccccc3c12 (stereo unspecified) | > 60 µg/mL |
| CC(=O)c1ccc(N[S+](=O)([O-])c2cccc(NC(=O)c3[nH]c(C)c(C(C)=O)c3C)c2)cc1 | 21.3 µg/mL (≈ 47 µM) |
| C#C[C@]1(OC(C)=O)CC[C@H]2[C@@H]3CCC4=C/C(=N/O)CC[C@@H]4[C@H]3CC[C@@]21CC | < 1 µg/mL |
| O=C(Nc1ccccc1)C1CCN(c2ncc(-c3ccc4c(c3)OCCCO4)s2)CC1 | < 1 µg/mL |
| Cc1ccccc1-c1nc(CN2CCC(C(=O)NCCCN3CCOCC3)CC2)c(C)o1 | > 65 µg/mL |
| Cc1ccc(O)c(-c2cc(-c3ccccc3C)[nH]n2)c1 | < 1 µg/mL |
| CCN1C(=O)c2ccccc2[S@](=O)c2ccc(C(=O)NCc3ccc(F)cc3)cc21 | 18.1 µg/mL (≈ 42.9 µM) |
| Cc1ccccc1CN1C2=NCCN2C(=O)C2=C1CCN(Cc1ccccc1)C2 | 26.7 µg/mL (≈ 69 µM) |
| CN[C@@H](C)C(=O)N[C@@H]1C(=O)N(Cc2c(C)ccc3ccccc23)c2ccc(C#N)cc2N(C(C)=O)[C@H]1C | > 73 µg/mL |
| Brc1ccc(-c2csc(N3CCNCC3)n2)cc1 | 6.59 µg/mL (≈ 20.3 µM) |
| Cc1ccc(S(=O)(=O)Nc2ccc(Cl)cc2C(=O)Nc2nc(-c3ccccc3)cs2)cc1 | < 1 µg/mL |
| Cc1ccc(S(=O)(=O)Nc2ccc(OC(F)(F)F)cc2C(=O)Nc2nc(-c3ccccc3)cs2)cc1 | < 1 µg/mL |
| Cc1cc(C)nc(NC(=S)N2CCN(c3cc(C(F)(F)F)nc4ccccc34)CC2)c1 | 19.7 µg/mL (≈ 44.3 µM) |
| Cc1ccc(S(=O)(=O)Nc2cnccc2C(=O)Nc2nc(C(=O)O)cs2)cc1 | > 62 µg/mL |
| Oc1ccc(NCc2ccccc2OCc2ccccc2Cl)cc1 | 3.28 µg/mL (≈ 9.65 µM) |
| S=C(NCCCc1cnc[nH]1)NCCCN(Cc1ccc(Cl)c(Cl)c1)c1ccc(Br)cn1 | < 1 µg/mL |
| CC(C)(C)OC(=O)NC1CCN(c2nc(-c3ccc(Br)cc3)cs2)CC1 | 6.48 µg/mL (≈ 14.8 µM) |
| CC1(COc2ccc3c(c2)ncn3-c2ccc3cccc(N4CCC(N)CC4)c3n2)COC1 | 36.8 µg/mL (≈ 82.9 µM) |
| CC(C)c1ccc(S(=O)(=O)c2cnc(SCC(=O)Nc3ccc4c(c3)OCCO4)[nH]c2=O)cc1 | > 74 µg/mL |
| CCN1CCN(c2ccc(Nc3ccc(-c4ccc(C(N)=O)cc4)n4ncnc34)cc2)CC1 | > 65 µg/mL |
| Cc1ccc(S(=O)(=O)Nc2cc(Cl)ccc2C(=O)Nc2nc(-c3ccccc3)cs2)cc1 | < 1 µg/mL |
| Cc1cccc(N(C)c2nc3ccccc3c3nnc(C)n23)c1 | > 45 µg/mL |
| COc1cc(-c2csc(N3CCC(C(N)=O)CC3)n2)cc(OC)c1OC | > 56 µg/mL |

| Compound | solubility kinetic |
| --- | --- |
| COc1c2c(c3c(c1CCC(=O)O)OC(C)(C)C=C3)OC(C)(C)C=C2 | > 51 µg/mL |
| Cc1ccc(S(=O)(=O)Nc2cnccc2C(=O)Nc2nc(-c3ccc(-c4ccccc4)cc3)cs2)cc1 | 0.487 µg/mL (≈ 0.925 µM) |
| CCOc1cc(=O)n2c(c1C(=O)Nc1cc(OC)c(Cl)cc1OC)CCCC2 | > 60 µg/mL |
| COc1cccc(CNc2ccc(C(=O)Nc3nccs3)cc2)c1O | < 1 µg/mL |
| CCCCOc1ccc(CC(=O)NO)cc1 | 13.6 µg/mL (≈ 60.9 µM) |
| CCCCCCN(CCCCCC)C(=O)Cc1c(-c2ccc(F)cc2)[nH]c2ccccc12 | < 1 µg/mL |
| CNC(=O)c1ccc(C)c(-n2c(C)cc(OCc3ccc(F)cc3F)c(Br)c2=O)c1 | > 100 µg/mL |
| COC(=O)Nc1nc2ccc(SC(C)C)cc2[nH]1 | < 1 µg/mL |
| COc1ccccc1-c1nc(NCc2cnc(C)cn2)c2ccccc2n1 | > 53 µg/mL |
| CCOc1cccc(C(=O)Nc2nc3c(s2)CC(C(C)(C)C)CC3)c1 (stereo unspecified) | < 1 µg/mL |
| Cc1ccc2nc(-c3cc(NC(=O)c4ccc5c(c4)OCCO5)ccc3Cl)oc2c1 | < 1 µg/mL |
| O=c1cc(CSc2ccc(Cl)cc2)nc(-c2ccccn2)[nH]1 | 1.18 µg/mL (≈ 3.58 µM) |
| Cc1ccccc1C(=O)N1CCc2cc(-c3nc(NC(=O)Cc4ccc5c(c4)OCO5)sc3C)ccc21 | < 1 µg/mL |
| COc1cc(NC(=O)Cn2c(=O)oc3cc(S(=O)(=O)N4CCCCCC4)ccc32)cc(OC)c1 | < 1 µg/mL |
| FC(F)(F)c1cccc(N2CCN(C(=S)Nc3nccc4ccccc34)CC2)c1 | < 1 µg/mL |
| Cc1ccc(S(=O)(=O)Nc2cnccc2C(=O)Nc2nc3ccccc3s2)cc1 | > 63 µg/mL |
| COc1ccnc(NC(=S)N2CCN(c3ccccc3C(F)(F)F)CC2)c1 | 7 µg/mL (≈ 17.7 µM) |
| COc1ccc(C(=O)Nc2nc(-c3ccccc3)cs2)cc1NS(=O)(=O)c1ccc(C)cc1 | < 1 µg/mL |
| Br.CC(Cc1ccc(O)cc1)NCC(O)c1cc(O)cc(O)c1 (stereo unspecified) | > 45 µg/mL |
| O=C(Nc1ccc(S(=O)(=O)Nc2nccs2)cc1)c1ccnc2ccccc12 | 2.55 µg/mL (≈ 6.2 µM) |
| COc1ccc(CNC(=O)c2cnc3ccccc3n2)cc1 | 36.1 µg/mL (≈ 123 µM) |
| COc1cc(Cl)c(C)cc1NC(=O)CSc1ncc(S(=O)(=O)c2ccc(C(C)(C)C)cc2)c(=O)[nH]1 | < 1 µg/mL |
| CCOc1ccc(NC(=O)c2ccc(F)c(S(=O)(=O)N(CC)Cc3ccccc3)c2)cc1 | < 1 µg/mL |
| Cc1cc(C)c(C(=O)Nc2cccc([S+](=O)([O-])N3CCCC3)c2)[nH]1 | 11.5 µg/mL (≈ 33.1 µM) |

| Compound | solubility kinetic |
| --- | --- |
| O=C1Nc2ccc(C(=O)c3ccco3)cc2/C1=C/c1cc(Cl)c(O)c(Cl)c1 | 9.16 µg/mL (≈ 22.9 µM) |
| Cc1ccccc1C(C(=O)NC1CCCCC1)N(C(=O)Cn1ccnc1C)c1cccc(F)c1 (stereo unspecified) | 3.13 µg/mL (≈ 6.76 µM) |
| COc1ccc(OC)c(-c2nnc3ccc(-c4ccc(OC)c(O[C@@H]5CCOC5)c4)nn23)c1 | > 66 µg/mL |
| CCS(=O)(=O)c1nc(-c2ccc(Cl)cc2)cc(C(F)(F)F)n1 | 8.53 µg/mL (≈ 24.3 µM) |
| Cc1cc(-c2nnc3n2CCCCC3)c(C)n1-c1ccc(Cl)c(Cl)c1 | 31.6 µg/mL (≈ 84.1 µM) |
| COc1ccccc1Nc1cnc2ccc(-c3ccc(OC)c(OC)c3)nn12 | < 1 µg/mL |
| N#Cc1nc(-c2cccc3ccccc23)oc1Nc1ccccc1 | < 1 µg/mL |
| COc1cc2c(cc1-c1c(C)noc1C)ncc1[nH]c(=O)n([C@H](C)c3ccccn3)c12 | > 61 µg/mL |
| CC(=O)N1CCN(c2ccc(OCc3nn(C)c(C)c3-c3cccc4c(CCCOc5cc(C)c(Cl)c(C)c5)c(C(=O)O)n(Cc5cccnc5)c34)cc2)CC1 | > 100 µg/mL |
| NC(=O)C1CCN(c2nc(-c3cccc4ccccc34)cs2)CC1 | 38.3 µg/mL (≈ 114 µM) |
| CC(=O)c1cccc(-c2csc(N3CCC(C(N)=O)CC3)n2)c1 | > 49 µg/mL |
| Cc1ccc(NC(=O)NCC2CCN(Cc3cccc(Cl)c3)CC2)cc1Cl | < 1 µg/mL |
| COc1cc(/C=C(\C#N)C(=O)c2ccc(O)c(O)c2)cc(I)c1O | 50.3 µg/mL (≈ 115 µM) |
| Cc1ccc(NC(=O)N(Cc2cn(C)c3ccccc23)C2CCCCC2)cc1C | 2.37 µg/mL (≈ 6.08 µM) |
| Cc1cc(-c2nnc3n2CCCCC3)c(C)n1-c1cccc(C(F)(F)F)c1 | 32.8 µg/mL (≈ 87.5 µM) |
| Cc1ccc(S(=O)(=O)Nc2ccc(F)cc2C(=O)Nc2nc(-c3ccccc3)cs2)cc1 | < 1 µg/mL |
| CS(=O)(=O)c1ccc(-c2cnc(NCc3ccco3)n3cnnc23)cc1 | > 37 µg/mL |
| CCOc1ccc(NC(=O)CC2C(=O)N(c3ccc(F)cc3)C(=O)N2CCc2sccc2C)cc1 (stereo unspecified) | < 1 µg/mL |
| Clc1ccc2ncc(-c3cccc(NC4CCNCC4)n3)n2c1 | > 48 µg/mL |
| CCOc1ccccc1C(=O)Nc1ccccc1C(=O)Nc1cccc(S(=O)(=O)C(F)(F)F)c1 | 1.57 µg/mL (≈ 3.18 µM) |
| Cc1cc(-c2nnc3n2CCCCC3)c(C)n1-c1ccc([N+](=O)[O-])cc1 | > 52 µg/mL |
| CCCc1cc(C)[nH]c(=O)c1CNC(=O)c1cc(-c2ccnc(N3CCN(C)CC3)c2)cc2c1cnn2C(C)C | 64 µg/mL (≈ 118 µM) |
| CN(C)CCN1C(=O)c2cccc3cc(N)cc(c23)C1=O | > 42 µg/mL |
| CC1(C)CC2CC(C)(CN2S(=O)(=O)c2ccc(C(=O)Nc3cccc(S(=O)(=O)N4CCOCC4)c3)cc2)C1 (stereo unspecified) | < 1 µg/mL |
